In patent US20190124918A1, “BIOFILM FORMATION INHIBITOR AND BIOFILM FORMATION INHIBITING COMPOSITION” (KAO CORPORATION, priority 2016, published 2019):

Legend:
[1] = test system: Pseudomonas PAO1 strain (ATCC 15692); assay: Growth of test microbe (turbidity OD600), 96-well microplate culture; type: cell-based; details: for inhibition at 101 ppm: final concentration 101 ppm; for inhibition at 203 ppm: final concentration 203 ppm; for inhibition at 405 ppm: final concentration 405 ppm; for inhibition at 608 ppm: final concentration 608 ppm; for inhibition at 709 ppm: final concentration 709 ppm; for inhibition at 810 ppm: final concentration 810 ppm
Protocol: (§1) Pseudomonas PAO1 strain (ATCC 15692) was subjected to stationary culture performed in LB culture medium (Lysogeny Broth; manufactured by Becton Dickinson) at 37° C. for 24 hours. The turbidity (OD600) of the culture solution was measured. The culture solution was diluted with Mueller Hinton Broth (BBL made) to prepare a suspension (15 mL) having a turbidity (OD600) of 1/10^6.
To each of the wells of a 96-well microplate (351172; manufactured by Japan Becton Dickinson), 6 μL of DMSO (Tokyo Chemical Industry Co. Ltd) and an ethanol solution (1 μL, 3 μL or 5 μL) of a test compound were added. After that, the microplate was allowed to stand still at room temperature for 5 hours to evaporate ethanol. The suspension of Pseudomonas microbe prepared in the above step 1) was added in an amount of 145 μL per well and culture was initiated. As the test compound, 2-methylhydroquinone (Sigma Aldrich) and p-toluquinone (Tokyo Kasei) were used. As a reference compound, sodium hypochlorite (manufactured by Wako Pure Chemical Industries Ltd.) was used. As a control, an ethanol solvent (EtOH control) alone was used. The concentration of the test compound in the ethanol solution is 1,000 ppm or 10,000 ppm and the final concentration of the test compound in the culture solution was about from 7 to 333 ppm.
(§2) After the 96-well microplate was subjected to stationary culture performed at 30° C. for 24 hours, turbidity (OD600) was measured to check growth. Subsequently, individual wells were stained with 0.1% crystal violet and thoroughly washed twice with physiological saline. To each well, 200 μL of ethanol was added and the absorbance (OD570) was measured to obtain the amount of the biofilm formed.
Compounds listed in Table 3 were each added to a test microbe and culture was conducted by the same procedure as in Test Example 1 and the amount of growth (OD600) and the amount of biofilm formed (OD570) were measured. For compounds a, b, c, f, h, i, J and k, 20 mM ethanol solutions were prepared; whereas for compounds d, e, g, 5 mM ethanol solutions were prepared. The solutions were each added to a 96-well microplate in an amount of 1 to 8 μL and evaluation was made. The final concentrations of the individual compounds are described in Table 3.
(§3) Growth inhibition rates relative to the control (ethanol alone) were calculated based on OD600 values measured and in accordance with the following expression. In addition, biofilm (BF) formation inhibition rates relative to the control (ethanol alone) were calculated based on OD570 values and in accordance with the following expression:
Growth inhibition (%)=(1−(compound addition group OD600/control group OD600))×100
(§4) As a control, an ethanol solvent alone was used (EtOH control). The concentrations of test compounds in the ethanol solution were as follows: test compound 1: 20 mM, test compounds 2 to 7: 100 mM. To each of the wells of a 96-well microplate (351172; manufactured by Japan Becton Dickinson), 6 μL of DMSO (Tokyo Kasei) and an ethanol solution of each test compound (1 to 8 μL) were added and then the microplates were allowed to stand still at room temperature for 5 hours to evaporate ethanol. A suspension solution of a Pseudomonas microbe prepared in the same procedure as in Test Example 1, 1) was added in an amount of 145 μL per well and culture was initiated.
as §2, with “culture” for “culture performed”, “formed. The growth inhibition rate and biofilm (BF) formation inhibition rate were calculated based on OD600 and OD570 values measured and in accordance with the expressions used in Test Example 2.” for “formed.”

[2] = test system: Pseudomonas PAO1 strain (ATCC 15692); assay: Amount of biofilm formed (crystal violet, OD570), 96-well microplate culture; type: cell-based; details: for inhibition at 101 ppm: final concentration 101 ppm; for inhibition at 203 ppm: final concentration 203 ppm; for inhibition at 405 ppm: final concentration 405 ppm; for inhibition at 608 ppm: final concentration 608 ppm; for inhibition at 709 ppm: final concentration 709 ppm; for inhibition at 810 ppm: final concentration 810 ppm
Protocol: as §1, with “1/10^6. […]” for “1/10^6.”
as §3
BF inhibition (%)={1−(compound addition group OD570/control group OD570)}×100
as §4
as §2, with “culture” for “culture performed”, “formed. The growth inhibition rate and biofilm (BF) formation inhibition rate were calculated based on OD600 and OD570 values measured and in accordance with the expressions used in Test Example 2.” for “formed.”

[3] = Pseudomonas, Test Example 3, read-out: BF inhibition (%)
[4] = high concentration range of 200 ppm or more

`CC(C)c1ccc(O)cc1O` [Compound 7, 4-Isopropylresorcinol] was tested, and the inhibition at 101 ppm ([1]; Pseudomonas, Test Example 3) was under 0%, the inhibition at 203 ppm ([1]; Pseudomonas, Test Example 3) was 5.7% and the inhibition at 405 ppm ([1]; Pseudomonas, Test Example 3) was under 0%. For the same compound, the inhibition at 608 ppm ([1]; Pseudomonas, Test Example 3) was 4.8%, the inhibition at 709 ppm ([1]; Pseudomonas, Test Example 3) was 19.5% and the inhibition at 810 ppm ([1]; Pseudomonas, Test Example 3) was 40.2%. For the same compound, the inhibition at 101 ppm [2, 3] was under 0%, the inhibition at 203 ppm [2, 3] was under 0% and the inhibition at 405 ppm [2, 3] was under 0%. The inhibition at 608 ppm [2, 3] was 29.1%, the inhibition at 709 ppm [2, 3] was 29.3% and the inhibition at 810 ppm [2, 3] was 21%.

In the case of `Oc1ccc(O)c(O)c1` [h, Hydroxyhydroquinone], the inhibition at 17 ppm ([1]; Pseudomonas, final concentration 17 ppm) is reported as 46.2%, the inhibition at 34 ppm ([1]; Pseudomonas, final concentration 34 ppm) is reported as 18% and the inhibition at 67 ppm ([1]; Pseudomonas, final concentration 67 ppm) is reported as 7.2%. For the same compound, the inhibition at 101 ppm ([1]; Pseudomonas) was 1.7%, the inhibition at 118 ppm ([1]; Pseudomonas, final concentration 118 ppm) was 2% and the inhibition at 134 ppm ([1]; Pseudomonas, final concentration 134 ppm) was 5.4%. The inhibition at 17 ppm ([2]; Pseudomonas, final concentration 17 ppm, read-out: BF inhibition (%)) was 78.2%, the inhibition at 34 ppm ([2]; Pseudomonas, final concentration 34 ppm, read-out: BF inhibition (%)) was 96.2% and the inhibition at 67 ppm ([2]; Pseudomonas, final concentration 67 ppm, read-out: BF inhibition (%)) was 96.1%. The inhibition at 101 ppm ([2]; Pseudomonas, read-out: BF inhibition (%)) was 96.3%, the inhibition at 118 ppm ([2]; Pseudomonas, final concentration 118 ppm, read-out: BF inhibition (%)) was 96.3% and the inhibition at 134 ppm ([2]; Pseudomonas, final concentration 134 ppm, read-out: BF inhibition (%)) was 96.4%.

In the case of `Cc1cc(O)ccc1O` [b, 2-Methylhydroquinone], the inhibition at 16 ppm ([1]; Pseudomonas, final concentration 16 ppm) is reported as 31.2%, the inhibition at 33 ppm ([1]; Pseudomonas, final concentration 33 ppm) is reported as under 0% and the inhibition at 65 ppm ([1]; Pseudomonas, final concentration 65 ppm) is reported as 4%. It also gave an inhibition at 98 ppm ([1]; Pseudomonas, final concentration 98 ppm) of under 0%, an inhibition at 114 ppm ([1]; Pseudomonas, final concentration 114 ppm) of 1.5% and an inhibition at 130 ppm ([1]; Pseudomonas, final concentration 130 ppm) of 0%. The “Growth OD600” value ([1]; final concentration 7 ppm, EtOH control 0.5913) was 0.6114, the “Growth OD600” value ([1]; final concentration 20 ppm, EtOH control 0.6346) was 0.6276 and the “Growth OD600” value ([1]; final concentration 33 ppm, EtOH control 0.668) was 0.6291. The “Growth OD600” value ([1]; final concentration 67 ppm, EtOH control 0.628) was 0.471, the “Growth OD600” value ([1]; final concentration 200 ppm, EtOH control 0.6045) was 0.3373 and the “Growth OD600” value ([1]; final concentration 333 ppm, EtOH control 0.6088) was 0.4302. The “microbial growth (in words)” value [1, 4] was “inhibited”, the inhibition at 16 ppm ([2]; Pseudomonas, final concentration 16 ppm, read-out: BF inhibition (%)) was 51.4% and the inhibition at 33 ppm ([2]; Pseudomonas, final concentration 33 ppm, read-out: BF inhibition (%)) was 42.5%. It also gave an inhibition at 65 ppm ([2]; Pseudomonas, final concentration 65 ppm, read-out: BF inhibition (%)) of 76.5%, an inhibition at 98 ppm ([2]; Pseudomonas, final concentration 98 ppm, read-out: BF inhibition (%)) of 87.3% and an inhibition at 114 ppm ([2]; Pseudomonas, final concentration 114 ppm, read-out: BF inhibition (%)) of 95.2%. For the same compound, the inhibition at 130 ppm ([2]; Pseudomonas, final concentration 130 ppm, read-out: BF inhibition (%)) was 96.2%, the “The amount of the biofilm formed OD570” value ([2]; final concentration 7 ppm, EtOH control 0.9163) was 0.7615 and the “The amount of the biofilm formed OD570” value ([2]; final concentration 20 ppm, EtOH control 0.9564) was 0.7848. The “The amount of the biofilm formed OD570” value ([2]; final concentration 33 ppm, EtOH control 0.8974) was 0.739, the “The amount of the biofilm formed OD570” value ([2]; final concentration 67 ppm, EtOH control 0.8853) was 0.5875 and the “The amount of the biofilm formed OD570” value ([2]; final concentration 200 ppm, EtOH control 0.9248) was 0.0566. The “The amount of the biofilm formed OD570” value ([2]; final concentration 333 ppm, EtOH control 0.9562) was 0.0744, the “biofilm formation (in words)” value [2, 4] was “inhibited” and the “biofilm formation (in words)” value ([2]; low concentration range of less than 200 ppm) was “inhibited”.

With `Cc1c(O)ccc(O)c1C` [e, 2,3-Dimethylhydroquinone] the inhibition at 5 ppm ([1]; Pseudomonas, final concentration 5 ppm) was under 0%, the inhibition at 9 ppm ([1]; Pseudomonas, final concentration 9 ppm) was 13.1% and the inhibition at 18 ppm ([1]; Pseudomonas, final concentration 18 ppm) was 0.8%. For the same compound, the inhibition at 27 ppm ([1]; Pseudomonas, final concentration 27 ppm) was under 0%, the inhibition at 32 ppm ([1]; Pseudomonas, final concentration 32 ppm) was 14% and the inhibition at 37 ppm ([1]; Pseudomonas, final concentration 37 ppm) was 5.4%. It also gave an inhibition at 5 ppm ([2]; Pseudomonas, final concentration 5 ppm, read-out: BF inhibition (%)) of under 0%, an inhibition at 9 ppm ([2]; Pseudomonas, final concentration 9 ppm, read-out: BF inhibition (%)) of under 0% and an inhibition at 18 ppm ([2]; Pseudomonas, final concentration 18 ppm, read-out: BF inhibition (%)) of under 0%. It also gave an inhibition at 27 ppm ([2]; Pseudomonas, final concentration 27 ppm, read-out: BF inhibition (%)) of 2.4%, an inhibition at 32 ppm ([2]; Pseudomonas, final concentration 32 ppm, read-out: BF inhibition (%)) of 17.8% and an inhibition at 37 ppm ([2]; Pseudomonas, final concentration 37 ppm, read-out: BF inhibition (%)) of 31.1%.

For `CCCc1c(O)cccc1O` [Compound 4, 2-Propylresorcinol], the inhibition at 101 ppm ([1]; Pseudomonas, Test Example 3) was under 0%, the inhibition at 203 ppm ([1]; Pseudomonas, Test Example 3) was 20.5% and the inhibition at 405 ppm ([1]; Pseudomonas, Test Example 3) was under 0%. It also gave an inhibition at 608 ppm ([1]; Pseudomonas, Test Example 3) of 6.8%, an inhibition at 709 ppm ([1]; Pseudomonas, Test Example 3) of 16.4% and an inhibition at 810 ppm ([1]; Pseudomonas, Test Example 3) of under 0%. It also gave an inhibition at 101 ppm [2, 3] of under 0%, an inhibition at 203 ppm [2, 3] of under 0% and an inhibition at 405 ppm [2, 3] of under 0%. It also gave an inhibition at 608 ppm [2, 3] of 7.9%, an inhibition at 709 ppm [2, 3] of 21.7% and an inhibition at 810 ppm [2, 3] of 14.1%.
